Experimental data taken from patent publication US4782070A, “Cerebral dysfunction therapeutic agent, which comprises a dihydropyridine compound” (Fujisawa Pharmaceutical Co., Ltd., priority 1986, dated 1988).

What was measured:
[1] = system: ischemic cerebral cortex of rat; experiment: Effect on blood flow in ischemic cerebral cortex of rat; assay type: in vivo, Male Wistar rats; conditions: po; for Increase in Blood Flow (Time-course of Vasodilation in Cortex of Occlusion Side): 1 mg/kg
Experimental: Male Wistar rats (5 rats per group), weighing 229-300 g, were anesthetized with thiopental sodium (50 mg/kg, ip). A skin incision was made in the middle of the right external auditory canal and the orbit, and a craniectomy (diameter: 2-2.5 mm) was made, using a dental drill, in the middle of the foramen ovale and the foramen opticum. After the dura was opened, the middle cerebral artery was exposed and occluded by electrocauterization using bipolar cautery.
After closure of the surgical wound, aminobenzylpenicillin (200 mg/kg) was divisionally administered into the operated part and subcutaneously.
One week after the surgery, the rats were anesthetized with urethane (1.25 g/kg, sc) and cannulae for artificial respiration and for measurement of blood pressure were inserted into the trachea and into the right femoral artery respectively, and then a stomach tube for administration of test compounds was inserted into stomach. The rats were fixed to stereotactic head-holders and craniectomies (diameter: 0.5 mm) were made on both sides of parietal skull, and then electrodes for measurement of local cerebral blood flow were inserted into right and left cerebral cortex (A=5, L=±5.0, H=2).
The blood flows of the ischemic (occlusion side) and non-ischemic (non-occlusion side) cerebral cortex of the rats used in this test were 17.4±4.5 and 51.4±1.2 ml/brain 100 g/minute, respectively. Test Compounds were dissolved in 100% polyethylene glycol and administered orally in a volume of 1 ml/kg.
The blood flow was calculated according to the following calculating formula after obtaining a half life (t1/2) from the clearance curve. [formula] λ: partition coefficient of hydrogen gas between blood and tissues (=1.0)
t1/2: a half life of concentration of hydrogen gas in brain

[2] = system: vertebral artery of dog; experiment: Effect on blood flow of the vertebral artery of dog; assay type: in vivo, Mongrel dogs
Experimental: Mongrel dogs of either sex (5-10 dogs per group), weighing 8-18 kg, were anesthetized with pentobarbital sodium (35 mg/kg, ip) and an electromagnetic flowprobe was fitted to the right vertebral artery and the blood flow of the vertebral artery was measured by a flow meter. Polyethylene cannulae were inserted into the femoral artery for measurement of blood pressure and into the femoral vein or the duodenum (after celiotomy) for administration of test compounds respectively.
Test compounds were dissolved in a mixture of ethanol, polyethylene glycol and distilled water, and administered in a volume of 0.2 ml/kg (iv) or 0.5 ml/kg (id). Incidentally, dogs were fasted for 18 hours in case of intraduodenum administration.

[3] = system: isolated canine basilar artery; experiment: Effect on isolated canine basilar artery (relaxation of KCl contraction); design: species or system mongrel dogs; conditions: Canis lupus familiaris; dose inducing 50% relaxation; contraction by 35 mM KCl; papaverine 0.1 mM = 100%; mean±standard error; read-out: ED50 (the source's name)
Experimental: Under pentobarbital sodium anesthesia (35 mg/kg, ip or 30 mg/kg, iv), the basilar arteries (outside diameter: 1.0-1.5 mm) were isolated from mongrel dogs (weighing 8-18 kg) of either sex (6 dogs per group) and cut spirally (width 1 mm×length 15-20 mm). The spiral strips were suspended in a Tyrode's solution aerating with a gas mixture of 95% oxygen and 5% carbon dioxide, and the resting tension was adjusted to 0.5 g. After 1 hour, 35 mM potassium chloride was added to the organ bath to contract the arteries. The cumulative concentrations of the test compound, dissolved in a mixture of ethanol, polyethylene glycol and distilled water, were then added. Finally 0.1 mM papaverine was given to determine maximum relaxation.

[4] = system: Production of Lipid Peroxide in cerebral mitochondria of rat; experiment: Effect on Production of Lipid Peroxide in cerebral mitochondria of rat; assay type: biochemical, male Wistar rats; conditions: 37° C., 1 hour
Experimental: Cerebral mitochondria of male Wistar rats were isolated and mixed with a mixture of ascorbic acid (100 μM), ferrous sulfate (10 μM), ferric sulfate (20 μM) and test compound, and the mixture was incubated at 37° C. for 1 hour. The amount of malondialdehyde produced in the incubated mixture was measured by thiobarbituric acid method [Shimada et al., Biochim. Biophy. Acta, vol. 489, pp 163-172 (1977)].

[5] = system: basilar artery; experiment: Remitting effect on a model of vasospasm after subarachnoid hemorrhage; assay type: in vivo, Mongrel cats; conditions: femoral vein
Experimental: Mongrel cats of either sex (3-5 cats per group) were anesthetized with pentobarbital sodium (60 mg/kg, sc) and tracheal cannulae were inserted, and the test was carried out under spontaneous respiration. Following transcervical, transclival approach, the canine basilar artery was exposed by opening the dura and arachnoid maters, using an operating microscope. 30 Minutes after the surgery, a mixture of an equal volume of blood and cerebrospinal fluid (CSF) (0.2 ml) preincubated under an aseptic condition (37° C., 6-7 days) was applied on the surface of canine basilar artery. At the same time, the test compound [dissolved in a mixture of ethanol, polyethylene glycol and distilled water (2:1:7, v/v/v), administration volume: 0.2 ml] or only vehicle was administered into the right femoral vein. After 10 minutes, the blood-CSF mixture was carefully removed and microphotographs of the canine basilar artery were taken with the passage of time, and the inside diameter of the artery was measured from the microphotographs.

[6] = system: ischemic brain; conditions: Occluded rat, 1.0 mg/kg sc once a day for 3 days
Experimental: Test compounds (1.0 mg/kg) (dissolved in polyethylene glycol, administration volume: 1 ml/kg) or vehicle was administered sc once a day for 3 days beginning from the fifth day after the surgery. One hour after the last administration, the rats were frozen in liquid nitrogen and then the whole brains of the both side excluding the cerebellum were isolated separately. The right hemisphere was homogenized with ice-cooled 6% perchloric acid (20 times in volume), centrifuged (3000 r.p.m., 10 minutes at 4° C.) and then the supernatant was neutralized with 5M potassium carbonate.
After the neutralization, the supernatant was centrifuged again and the concentrations of adenosine triphosphate (ATP) and lactic acid included in the resulting supernatant were measured by enzymatic assay.

[7] = system: cerebral circulation; conditions: cited from earlier work
[8] = system: rat with transient cerebral ischemia; conditions: cited from earlier work

| Structure (SMILES) | Increase in Blood Flow (Time-course of Vasodilation in Cortex of Occlusion Side) ([1]; 15 minutes) [%] | Increase in Blood Flow (Time-course of Vasodilation in Cortex of Occlusion Side) ([1]; 30 minutes) [%] | Increase in Blood Flow (Time-course of Vasodilation in Cortex of Occlusion Side) ([1]; 45 minutes) [%] | Increase in Blood Flow (Time-course of Vasodilation in Cortex of Occlusion Side) ([1]; 60 minutes) [%] | Increase in Blood Flow (Time-course of Vasodilation in Cortex of Occlusion Side) ([1]; 90 minutes) [%] | Increase in Blood Flow (Time-course of Vasodilation in Cortex of Occlusion Side) ([1]; 120 minutes) [%] | Maximum Increase in Blood Flow ([1]; Non-occlusion side, 0.1 mg/kg) [%] | Maximum Increase in Blood Flow ([1]; Non-occlusion side, 1.0 mg/kg) [%] | Maximum Increase in Blood Flow ([1]; Occlusion side, 0.1 mg/kg) [%] | Maximum Increase in Blood Flow ([1]; Occlusion side, 1.0 mg/kg) [%] | Time-course of Changes of Blood Flow ([2]; 32 μg/kg, iv, 5 minutes) [%] | Time-course of Changes of Blood Flow ([2]; 32 μg/kg, iv, 10 minutes) [%] | Time-course of Changes of Blood Flow ([2]; 32 μg/kg, iv, 20 minutes) [%] | Time-course of Changes of Blood Flow ([2]; 32 μg/kg, iv, 30 minutes) [%] | Time-course of Changes of Blood Flow ([2]; 32 μg/kg, iv, 60 minutes) [%] | Time-course of Changes of Blood Flow ([2]; 32 μg/kg, iv, 90 minutes) [%] | Time-course of Changes of Blood Flow ([2]; 32 μg/kg, iv, 120 minutes) [%] | Maximum Changes of Blood Flow ([2]; iv, 3.2 μg/kg) [%] | Maximum Changes of Blood Flow ([2]; iv, 10 μg/kg) [%] | Maximum Changes of Blood Flow ([2]; iv, 32 μg/kg) [%] | other results |
| --- | --- | --- | --- | --- | --- | --- | --- | --- | --- | --- | --- | --- | --- | --- | --- | --- | --- | --- | --- | --- | --- |
| COC(=O)C1=C(C#N)NC(C)=C(C(=O)OC(C)C)C1c1cccc([N+](=O)[O-])c1 (stereo not drawn) [Dihydropyridine Compound A, Isopropyl ester of 6-cyano-5-methoxycarbonyl-2-methyl-4-(3-nitrophenyl)-1,4-dihydropyridine-3-carboxylic acid] | 17.8 ± 2.4 | 27.4 ± 3.7 | 32.6 ± 4.6 | 28.3 ± 2.5 | 21.6 ± 6.4 | 17.5 ± 7.3 | 13.6 ± 1.7 | 26.1 ± 4.8 | 12.6 ± 3.1 | 32.6 ± 4.6 | 109.6 ± 18.3 | 96.7 ± 16.2 | 81.3 ± 15.5 | 77.7 ± 12.5 | 71.2 ± 17.5 | 61.4 ± 25.7 | 52.1 ± 23.1 | 39.2 ± 7.2 | 86.4 ± 20.6 | 109.6 ± 18.3 | Time-course of Changes of Blood Flow ([2]; 32 μg/kg, iv, 180 minutes): 31.0 ± 15.7%; Maximum Changes of Blood Flow ([2]; id, 10 μg/kg): 17.2 ± 6.0%; Maximum Changes of Blood Flow ([2]; id, 32 μg/kg): 39.7 ± 13.1%; Maximum Changes of Blood Flow ([2]; id, 100 μg/kg): 89.3 ± 11.5%; EC50 [3]: 0.33 ± 0.04 nM; Inhibition of Production of Lipid Peroxide ([4]; 2.6 × 10^-4 (M)): 100.0%; Inhibition of Production of Lipid Peroxide ([4]; 2.6 × 10^-5 (M)): 96.94 ± 1.03%; Time-course of Changes of the Diameter of the Artery ([5]; 10 μg/kg, 15 minutes): 17.0 ± 4.5%; Time-course of Changes of the Diameter of the Artery ([5]; 10 μg/kg, 30 minutes): 17.1 ± 4.6%; Time-course of Changes of the Diameter of the Artery ([5]; 10 μg/kg, 45 minutes): 18.3 ± 5.3%; Time-course of Changes of the Diameter of the Artery ([5]; 10 μg/kg, 60 minutes): 17.8 ± 3.8%; Time-course of Changes of the Diameter of the Artery ([5]; 10 μg/kg, 90 minutes): 15.5 ± 3.2%; Time-course of Changes of the Diameter of the Artery ([5]; 10 μg/kg, 120 minutes): 17.1 ± 5.1%; Time-course of Changes of the Diameter of the Artery ([5]; 100 μg/kg, 15 minutes): 16.6 ± 7.6%; Time-course of Changes of the Diameter of the Artery ([5]; 100 μg/kg, 30 minutes): 15.1 ± 5.1%; Time-course of Changes of the Diameter of the Artery ([5]; 100 μg/kg, 45 minutes): 25.9 ± 7.5%; Time-course of Changes of the Diameter of the Artery ([5]; 100 μg/kg, 60 minutes): 24.4 ± 7.5%; Time-course of Changes of the Diameter of the Artery ([5]; 100 μg/kg, 90 minutes): 21.6 ± 7.3%; Time-course of Changes of the Diameter of the Artery ([5]; 100 μg/kg, 120 minutes): 25.5 ± 7.9% |
| COC(=O)C1=C(C)NC(C)=C(C(=O)OCCN(C)Cc2ccccc2)C1c1cccc([N+](=O)[O-])c1 (stereo not drawn) [Nicardipine, reference compound] | 6.2 ± 1.8 | 13.4 ± 2.8 | 15.9 ± 2.5 | 11.6 ± 2.9 | 8.8 ± 4.2 | 9.1 ± 5.3 | 8.9 ± 3.2 | 20.5 ± 5.1 | 6.4 ± 1.3 | 15.9 ± 2.5 | 91.7 ± 14.8 | 73.4 ± 15.2 | 48.1 ± 13.2 | 37.0 ± 10.4 | 23.0 ± 17.7 | 8.2 ± 10.8 | -0.5 ± 8.9 | 31.4 ± 5.2 | 77.8 ± 17.4 | 91.7 ± 14.8 | ATP ([6]; vehicle 1.97 ± 0.06, normal rat 2.38 ± 0.13): 1.92 ± 0.11 μmol/brain 1 g; Lactic acid ([6]; vehicle 3.84 ± 0.28, normal rat 1.83 ± 0.18): 3.84 ± 0.14 μmol/brain 1 g; Maximum Changes of Blood Flow ([2]; id, 320 μg/kg): 33.7 ± 14.3%; Maximum Changes of Blood Flow ([2]; id, 1000 μg/kg): 56.0 ± 28.5%; Maximum Changes of Blood Flow ([2]; id, 3200 μg/kg): 131.3 ± 36.0%; EC50 [3]: 0.7 ± 0.07 nM; duration of improving activity of cerebral circulation [7]: short; improving activity of cerebral circulation [7]: have improving activity of cerebral circulation |
| COCCOC(=O)C1=C(C)NC(C)=C(C(=O)OC(C)C)C1c1cccc([N+](=O)[O-])c1 (stereo not drawn) [nimodipine] |  |  |  |  |  |  |  |  |  |  |  |  |  |  |  |  |  |  |  |  | brain ATP content after reperfusion ([8]; after reperfusion): improves; electroencephalogram after reperfusion ([8]; after reperfusion): improves; electroencephalogram and brain ATP content during ischemia ([8]; during ischemia): not improve them during ischemia; liberation of free fatty acids ([8]; same model): no effect; improving activity of cerebral circulation [7]: have improving activity of cerebral circulation |
